The source of these data is patent US20140330261A1, “CATHETER FOR PERFORMING PHOTODYNAMIC ABLATION OF CARDIAC MUSCLE TISSUE VIA PHOTOCHEMICAL REACTION” (KEIO UNIVERSITY, priority 2010, published 2014).

The test system of experiment [1] is right ventricular tissue isolated from a Wistar rat. The experiment in a line: Electrical conduction blocking via photodynamic therapy in cardiac muscle tissue extirpated from a rat (ex vivo). The settings on record: 4.3 μg/ml in Tyrode's perfusion fluid for 2 hours; 670.8 nm laser, 150 mW/cm^2, 3.5 J/cm^2; 5 minutes after photodynamic therapy. The procedure:
The right ventricular tissue isolated from a Wistar rat was used as a sample. Talaporfin sodium was used as a photosensitive pigment. Talaporfin sodium was dissolved in a perfusion fluid at 4.3 μg/ml. Tyrode's solutions were used as perfusion fluids ([…] 37° C.). A semiconductor laser with a central wavelength of 670.8 nm was used as an excitation light source, and the irradiation was carried out at 150 mW/cm^2 and 3.5 J/cm^2. An experiment of electric conduction blocking in the cardiac muscle was carried out by the following procedures. 1. The heart was extirpated under deep anesthesia and the right ventricular wall was excised. 2. The excised tissue was subjected to perfusion in a Tyrode's solution comprising talaporfin sodium dissolved therein for 2 hours. 3. Three bipolar electrodes were positioned in cardiac muscle tissue. One such electrode was used for electrical stimulation (for conductance) and the two other electrodes were used for potential measurement (A and B). 4. A band-like laser beam was irradiated to the region between electrodes for potential measurement to perform photodynamic therapy. 5. Potentials at the electrodes for potential measurement A and B were measured during laser irradiation.

The test system of experiment [2] is cardiac muscle tissue of the left auricle. Put plainly: Acute experiment (open-heart surgery) using swine: verification of immediate conduction block by photodynamic therapy. It counts as in vivo. The settings on record: 10 mg/kg intravenously, irradiation 30 minutes after administration, 663 nm, 5.2 W/cm^2, 208 J/cm^2, irradiation line approximately 30 mm. The procedure: Left auricular tissue obtained from a swine (body weight: 15.4 kg) was used as a sample. Talaporfin sodium was used as a photosensitive dye, and it was administered intravenously to the swine at 10 mg/kg of the body weight. The duration until light irradiation after the administration of the photosensitive dye was 30 minutes. Light irradiation was carried out using a semiconductor laser with a central wavelength of 663 nm at a power density of 5.2 W/cm^2, an energy density of 208 J/cm^2, and a spot size of 7 mm Φ. The experiment for verification of immediate conduction block using swine was carried out in accordance with the following procedure. 1. A swine was subjected to open-heart surgery under deep anesthesia and the left auricle was exposed. 2. Three bipolar electrodes were positioned in cardiac muscle tissue of the left auricle. One such electrode was used for electrical stimulation (for conductance) and the two other electrodes were used for potential measurement (A and B). 3. Talaporfin sodium was administered intravenously at 10 mg/kg. 4. The irradiation with a band-like laser beam was carried out in a dotted manner between electrodes for potential measurement 30 minutes after administration to perform photodynamic therapy. 5. The potential of an electrode for potential measurement B was measured during laser beam irradiation. 6. […]

With `C=Cc1c(C)c2cc3nc(c(CC(=O)N[C@@H](CC(=O)O)C(=O)O)c4[nH]c(cc5nc(cc1[nH]2)C(C)=C5CC)c(C)c4C(=O)O)[C@@H](CCC(=O)O)[C@@H]3C` [Talaporfin sodium, talaporfin sodium], the “electric conductivity of cardiac muscle tissue at the site irradiated with light after photodynamic therapy” value in experiment [1] was “electric conductivity of cardiac muscle tissue was lost”. Besides, in experiment [2], the “delay of electric conduction at electrode B after light irradiation” value was “approximately 35.5 ms”.
